Data published in US20130303378A1, “Biocide Compositions Comprising Esters Of Ethoxylated Alcohols” (priority 2010, published 2013).

Tests used:
barley powdery mildew [1] = assay: Protective greenhouse trial with Amistar (Azoxystrobin SC 250) plus adjuvant against barley powdery mildew; assay type: in vivo, barley powdery mildew on barley; details: azoxystrobin 5 g/ha, adjuvant 50 ml/ha, leaf segments cut 5 h after application, incubation 10 d after inoculation
Experimental: Opus SC125, a commercial available pesticide sold by BASF, was tested to control barley powdery mildew (BPM) in a curative greenhouse trial, Azoxystrobin SC 250 in a protective trial. In each case, barley was cultivated in a substrate “Frustorder Erde” for three weeks. Each treatment was replicated 14 times. The adjuvant dose rate in each treatment was 50 ml/ha. 5 h after application with the equivalent of 5 g/ha azoxystrobin, leaf segments were cut off at a length of 7 cm from the stem. The leaves of the F and F-1 leaf were placed on agar. After the inoculation, the incubation time was 10 d. The assessment of the infection rate was conducted by a trained biologist.

barley powdery mildew [2] = assay: Performance in both trials together (curative Opus and protective Amistar); assay type: in vivo, barley powdery mildew on barley; details: for Sum of infection rates: sum of OPUS and AMISTAR infection rates; for adjuvancy effect considering the performance in both trials: assessment in words, Opus and Amistar trials
Experimental: Opus SC125, a commercial available pesticide sold by BASF, was tested to control barley powdery mildew (BPM) in a curative greenhouse trial, Azoxystrobin SC 250 in a protective trial. In each case, barley was cultivated in a substrate “Frustorder Erde” for three weeks. Each treatment was replicated 14 times. The adjuvant dose rate in each treatment was 50 ml/ha. Inoculation of the leaves with powdery mildew (Blumeria graminis f. sp. hordei) was done 2 days prior to application to test Opus' curative action. From the stem, leaf segments were cut off with a length of 10 cm using the flag leaf (F) and 2nd leaf (F-1). Altogether, the leaves of each stem were placed on benzimidazol agar i.e. 0.5% Agar with 40 ppm benzimidazol. The concentration of Opus for the leaf application was 10 g/ha. […] The assessment of the infection rate was conducted by a trained biologist. 5 h after application with the equivalent of 5 g/ha azoxystrobin, leaf segments were cut off at a length of 7 cm from the stem. The leaves of the F and F-1 leaf were placed on agar. After the inoculation, the incubation time was 10 d. The assessment of the infection rate was conducted by a trained biologist.

[3] = system: barley powdery mildew (Blumeria graminis f. sp. hordei); assay: Curative greenhouse trial with Opus SC125 plus adjuvant against barley powdery mildew; assay type: in vivo, Blumeria graminis f. sp. hordei on barley; details: Opus 10 g/ha, adjuvant 50 ml/ha, inoculation 2 days prior to application, assessment 14 DAT, mildew pustules per leaf
Experimental: Opus SC125, a commercial available pesticide sold by BASF, was tested to control barley powdery mildew (BPM) in a curative greenhouse trial, Azoxystrobin SC 250 in a protective trial. In each case, barley was cultivated in a substrate “Frustorder Erde” for three weeks. Each treatment was replicated 14 times. The adjuvant dose rate in each treatment was 50 ml/ha.
Inoculation of the leaves with powdery mildew (Blumeria graminis f. sp. hordei) was done 2 days prior to application to test Opus' curative action. From the stem, leaf segments were cut off with a length of 10 cm using the flag leaf (F) and 2nd leaf (F-1). Altogether, the leaves of each stem were placed on benzimidazol agar i.e. 0.5% Agar with 40 ppm benzimidazol. The concentration of Opus for the leaf application was 10 g/ha. Assessment 14 days after treatment (14 DAT) of the efficacy against powdery mildew was done by counting the mildew pustules per leaf on a length of 7 cm. The assessment of the infection rate was conducted by a trained biologist.

Substance | Infection rate of barley powdery mildew after treatment with fungicides, AMISTAR (barley powdery mildew [1]) [%] | Sum of infection rates (barley powdery mildew [2]) [%] | Infection rate of barley powdery mildew after treatment with fungicides, OPUS [3] [%] | adjuvancy effect considering the performance in both trials (barley powdery mildew [2])
Isodecyl + 6EO-C8/10 Ester [Example C1] | 5 | 26 | 21 | –
C12/14 + 5EO-C8/10 Ester [Example C2] | 3 | 27 | 24 | –
Decyl + 20EO-C8/10 Ester [Example 5] | 12 | 23 | 11 | –
C12/14 + 20EO-C8/10 Ester [Example C4] | 18 | 33 | 15 | –
Isoamyl + 20EO laurate [Example 2] | 0 | 12 | 12 | –
Isoamyl + 20EO oleate [Example 1] | 0 | 7 | 7 | best adjuvancy effect
Decyl + 10EO-C8/10 Ester [Example 4] | 0 | 22 | 22 | –
Isoamyl + 5EO oleate [Example C5] | 17 | 34 | 17 | does not give acceptable results
C12/14 + 10EO-C8/10 Ester [Example C3] | 2 | 31 | 29 | –
Isoamyl + 10EO laurate [Example 3] | 14 | 18 | 4 | –
